Measurements taken from ChEMBL document CHEMBL6078725, “Discovery of novel xanthohumol C derivatives regulating XRCC2 transcription and expression for the treatment of colorectal cancer” (Bioorg Med Chem, 2025).
The source made the active and inactive calls. The calls are words filed in the database; no cut-off is given here.

Key:
[1] = Acute toxicity in BALB/c mouse assessed as morphological change in liver at 10 to 90 mg/kg, po measured for 7 days by H and E staining based analysis; assay type: organism-based; conditions: in vivo, 168 h, dose 10-90 mg/kg, time 7 day
[2] = Cmax in male Sprague-Dawley rat at 10 mg/kg, po measured upto 48 hrs by UHPLC-MS/MS analysis; assay type: ADME, organism-based; conditions: in vivo
[3] = Toxicity in BALB/c mouse implanted with human HCT-116 cells assessed as morphological changes in tumor t at 10 to 40 mg/kg, ip administered for 2 weeks by H and E staining based analysis; assay type: organism-based; conditions: in vivo, 336 h, dose 10-40 mg/kg
HCT-116 [4] = experiment: Inhibition of BRCA1 expression in human HCT-116 cells incubated for 48 hrs Western blot analysis; assay type: functional, cell-based; conditions: dose 1.25-5 µM
HCT-116 [5] = experiment: Induction of DNA damage in human HCT-116 cells assessed as increase in 53BP1 foci positive cells at 1.25 to 5 uM incubated for 48 hrs by immunofluorescence staining based analysis; assay type: functional, cell-based; conditions: dose 1.25-5 µM
HCT-116 [6] = experiment: Inhibition of XRCC2 expression in human HCT-116 cells incubated for 48 hrs Western blot analysis; assay type: functional, cell-based; conditions: dose 1.25-5 µM
HCT-116 [7] = experiment: Antitumor activity against human HCT-116 cells xenografted in BALB/c mouse assessed as increase in DNA damage by measuring gamma-H2AX level at 10 to 40 mg/kg, ip administered for 2 weeks by immunohistochemical analysis; assay type: functional, organism-based; conditions: dose 10-40 mg/kg
[8] = Acute toxicity in BALB/c mouse assessed as change in ALT level at 10 to 90 mg/kg, po measured for 7 days; assay type: organism-based; conditions: in vivo, 168 h, dose 10-90 mg/kg, time 7 day
RKO [9] = experiment: Inhibition of colony formation in human RKO cells assessed as reduction in colony formation at 5 uM by crystal violet staining based light microscopic analysis; assay type: functional
[10] = AUC (0 to t) in male Sprague-Dawley rat at 10 mg/kg, po measured upto 48 hrs by UHPLC-MS/MS analysis; assay type: ADME, organism-based; conditions: in vivo
[11] = Acute toxicity in BALB/c mouse assessed as change in kidney weight at 10 to 90 mg/kg, po measured for 7 days; assay type: organism-based; conditions: in vivo, 168 h, dose 10-90 mg/kg, time 7 day
HCT-116 [12] = experiment: Induction of cell cycle arrest in human HCT-116 cells at 5 uM incubated for 2 to 48 hrs by PI staining based flow cytometry analysis; assay type: functional; conditions: time 2-48 hrs
[13] = Acute toxicity in BALB/c mouse assessed as change in creatine level at 10 to 90 mg/kg, po measured for 7 days; assay type: organism-based; conditions: in vivo, 168 h, dose 10-90 mg/kg, time 7 day
RKO [14] = experiment: Antiproliferative activity against human RKO cells incubated for 48 hrs by MTS assay; assay type: functional, cell-based
[15] = Oral bioavailability in male Sprague-Dawley rat at 10 mg/kg measured upto 48 hrs by UHPLC-MS/MS analysis; assay type: ADME, organism-based; conditions: in vivo
HCT-116 [16] = experiment: Inhibition of colony formation in human HCT-116 cells by crystal violet staining based light microscopic analysis; assay type: functional, cell-based; conditions: dose 1.25-5 µM
HCT-116 [17] = experiment: Antitumor activity against human HCT-116 cells xenografted in BALB/c mouse assessed as inhibition of tumor proliferation at 10 to 40 mg/kg, ip administered for 2 weeks by Ki67 staining based immunohistochemical analysis; assay type: functional, organism-based; conditions: dose 10-40 mg/kg
HCT-116 [18] = experiment: Antitumor activity against human HCT-116 cells xenografted in BALB/c mouse assessed as inhibition of tumor growth at 10 to 40 mg/kg, ip administered for 2 weeks; assay type: functional, organism-based; conditions: dose 10-40 mg/kg
HCT-116 [19] = experiment: Inhibition of DNA replication in human HCT-116 cells assessed as reduction in EdU positive cells incubated for 48 hrs by EdU staining based fluorescence microscopic analysis; assay type: functional, cell-based; conditions: dose 1.25-5 µM
HCT-116 [20] = experiment: Inhibition of BRCA1 expression in human HCT-116 cells assessed as reduction in fluorescence intensity at 1.25 to 5 uM incubated for 48 hrs immunofluorescence analysis; assay type: functional, cell-based; conditions: dose 1.25-5 µM
[21] = Cmax in male Sprague-Dawley rat at 2 mg/kg, iv measured upto 8 hrs by UHPLC-MS/MS analysis; assay type: ADME, organism-based; conditions: in vivo
HCT-116 [22] = experiment: Antitumor activity against human HCT-116 cells xenografted in BALB/c mouse assessed as inhibition of XRCC2 expression at 10 to 40 mg/kg, ip administered for 2 weeks by Western blot analysis; assay type: functional, organism-based; conditions: dose 10-40 mg/kg
[23] = AUC (0 to infinity) in male Sprague-Dawley rat at 10 mg/kg, po measured upto 48 hrs by UHPLC-MS/MS analysis; assay type: ADME, organism-based; conditions: in vivo
[24] = AUC (0 to t) in male Sprague-Dawley rat at 2 mg/kg, iv measured upto 8 hrs by UHPLC-MS/MS analysis; assay type: ADME, organism-based; conditions: in vivo
[25] = Tmax in male Sprague-Dawley rat at 10 mg/kg, po measured upto 48 hrs by UHPLC-MS/MS analysis; assay type: ADME, organism-based; conditions: in vivo
[26] = Half life in male Sprague-Dawley rat at 2 mg/kg, iv measured upto 8 hrs by UHPLC-MS/MS analysis; assay type: ADME, organism-based; conditions: in vivo
[27] = Half life in male Sprague-Dawley rat at 10 mg/kg, po measured upto 48 hrs by UHPLC-MS/MS analysis; assay type: ADME, organism-based; conditions: in vivo
[28] = Tmax in male Sprague-Dawley rat at 2 mg/kg, iv measured upto 8 hrs by UHPLC-MS/MS analysis; assay type: ADME, organism-based; conditions: in vivo
RKO [29] = experiment: Inhibition of colony formation in human RKO cells by crystal violet staining based light microscopic analysis; assay type: functional, cell-based; conditions: dose 1.25-5 µM
[30] = Acute toxicity in BALB/c mouse assessed as change in body weight at 10 to 90 mg/kg, po measured for 7 days; assay type: organism-based; conditions: in vivo, 168 h, dose 10-90 mg/kg, time 7 day
[31] = Acute toxicity in BALB/c mouse assessed as change in lung weight at 10 to 90 mg/kg, po measured for 7 days; assay type: organism-based; conditions: in vivo, 168 h, dose 10-90 mg/kg, time 7 day
[32] = Acute toxicity in BALB/c mouse assessed as morphological change in kidney at 10 to 90 mg/kg, po measured for 7 days by H and E staining based analysis; assay type: organism-based; conditions: in vivo, 168 h, dose 10-90 mg/kg, time 7 day
[33] = Acute toxicity in BALB/c mouse assessed as change in liver weight at 10 to 90 mg/kg, po measured for 7 days; assay type: organism-based; conditions: in vivo, 168 h, dose 10-90 mg/kg, time 7 day
[34] = Acute toxicity in BALB/c mouse assessed as change in AST level at 10 to 90 mg/kg, po measured for 7 days; assay type: organism-based; conditions: in vivo, 168 h, dose 10-90 mg/kg, time 7 day
RKO [35] = experiment: Inhibition of DNA replication in human RKO cells assessed as reduction in EdU positive cells incubated for 48 hrs by EdU staining based fluorescence microscopic analysis; assay type: functional, cell-based; conditions: dose 1.25-5 µM
[36] = Bioavailability in male Sprague-Dawley rat […] by UHPLC-MS/MS analysis; assay type: ADME, organism-based; conditions: in vivo
[37] = Acute toxicity in BALB/c mouse assessed as change in heart weight at 10 to 90 mg/kg, po measured for 7 days; assay type: organism-based; conditions: in vivo, 168 h, dose 10-90 mg/kg, time 7 day
[38] = Acute toxicity in BALB/c mouse assessed as change in spleen weight at 10 to 90 mg/kg, po measured for 7 days; assay type: organism-based; conditions: in vivo, 168 h, dose 10-90 mg/kg, time 7 day
HCT-116 [39] = experiment: Antiproliferative activity against human HCT-116 cells incubated for 48 hrs by MTS assay; assay type: functional, cell-based; conditions: HCT-116, 48 h
[40] = Toxicity in BALB/c mouse implanted with human HCT-116 cells assessed as change in body weight at 10 to 40 mg/kg, ip administered for 2 weeks; assay type: organism-based; conditions: in vivo, 336 h, dose 10-40 mg/kg
HCT-116 [41] = experiment: Antitumor activity against human HCT-116 cells xenografted in BALB/c mouse assessed as inhibition of BRCA1 expression at 10 to 40 mg/kg, ip administered for 2 weeks by Western blot analysis; assay type: functional, organism-based; conditions: dose 10-40 mg/kg
HCT-116 [42] = experiment: Inhibition of colony formation in human HCT-116 cells assessed as reduction in colony formation at 5 uM by crystal violet staining based light microscopic analysis; assay type: functional
[43] = AUC (0 to infinity) in male Sprague-Dawley rat at 2 mg/kg, iv measured upto 8 hrs by UHPLC-MS/MS analysis; assay type: ADME, organism-based; conditions: in vivo

COc1cc2c(c(O)c1C(=O)/C=C/c1ccccc1N1CCN(C)CC1)C=CC(C)(C)O2
Activity [1]: Non-toxic
Cmax [2]: 152 ng/mL
Activity [3]: Non-toxic
inhibition (HCT-116 [4]): Dose-dependent-effect
Activity (HCT-116 [5]): Active
inhibition (HCT-116 [6]): Dose-dependent-effect
Activity (HCT-116 [7]): Active
Activity [8]: Non-toxic
inhibition at 5 µM (RKO [9]): 2%
AUC(0-t) at 48 h [10]: 1270 µg·h/mL
Activity [11]: Non-toxic
Activity (HCT-116 [12]): Active
Activity [13]: Non-toxic
IC50 (RKO [14]): 4.01 µM
bioavailability [15]: 37.5%
inhibition (HCT-116 [16]): Dose-dependent-effect
Activity (HCT-116 [17]): Active
Activity (HCT-116 [18]): Active
inhibition (HCT-116 [19]): Dose-dependent-effect
inhibition (HCT-116 [20]): Active
Cmax [21]: 359 ng/mL
Activity (HCT-116 [22]): Active
AUC(0-inf) [23]: 3 µg·h/mL
AUC(0-t) at 8 h [24]: 866 µg·h/mL
Tmax [25]: 4 h
t1/2 [26]: 0.82 h
half-life [27]: 69.3 h
Tmax [28]: 2.28 min
inhibition (RKO [29]): Dose-dependent-effect
Activity [30]: Non-toxic
Activity [31]: Non-toxic
Activity [32]: Non-toxic
Activity [33]: Non-toxic
Activity [34]: Non-toxic
inhibition (RKO [35]): Dose-dependent-effect
bioavailability [36]: 37.5%
Activity [37]: Non-toxic
Activity [38]: Non-toxic
IC50 (HCT-116 [39]): 5.4 µM
Activity [40]: Non-toxic
Activity (HCT-116 [41]): Active
inhibition at 5 µM (HCT-116 [42]): 2%
AUC [43]: 1.61 µg·h/mL
